Literature values as cited in Sander's compilation of Henry's law constants (doi:10.1016/s0045-6535(00)00505-1).

Assay: Henry solubility constant Hcp at 298.15 K (mol/(m3 Pa))
Details: reference: Staudinger and Roberts (2001); cited value

| Structure (SMILES) | Henry solubility constant Hcp |
| --- | --- |
| Cc1ccc(C)cc1 [1,4-dimethylbenzene] | 0.0013 |
| ClCC(Cl)(Cl)Cl [1,1,1,2-tetrachloroethane] | 0.024 |
| CC(Cl)CCl (centres undefined) [1,2-dichloropropane] | 0.0034 |
| ClC(Br)Br [dibromochloromethane] | 0.0086 |
| CCc1ccccc1 [ethylbenzene] | 0.0013 |
| O=Cc1ccccc1 [benzaldehyde] | 0.38 |
| ClC=C(Cl)Cl [trichloroethene] | 0.001 |
| CS [methanethiol] | 0.0028 |
| CC(C)=O [propanone] | 0.28 |
| CC(C)c1ccccc1 [(2-propyl)-benzene] | 0.0012 |
| CSC [dimethyl sulfide] | 0.0053 |
| Cc1cccc(C)c1 [1,3-dimethylbenzene] | 0.0014 |
| COO [methyl hydroperoxide] | 3.1 |
| Clc1ccccc1 [chlorobenzene] | 0.0027 |
| BrC(Br)Br [tribromomethane] | 0.017 |
| c1ccccc1 [benzene] | 0.0017 |
| CCCl [chloroethane] | 0.00084 |
| CC(Cl)(Cl)Cl [1,1,1-trichloroethane] | 0.00059 |
| Cc1ccccc1 [methylbenzene] | 0.0015 |
| CCCCC(=O)O [pentanoic acid] | 23 |

| Structure (SMILES) | Henry solubility constant Hcp |
| --- | --- |
| CI [iodomethane] | 0.002 |
| CC#N [ethanenitrile] | 0.51 |
| ClCC(Cl)Cl [1,1,2-trichloroethane] | 0.011 |
| ClC(Cl)=C(Cl)Cl [tetrachloroethene] | 0.00059 |
| ClCC(Cl)CCl [1,2,3-trichloropropane] | 0.036 |
| CC(=O)C(=O)O [2-oxopropanoic acid] | 3000 |
| C=C(Cl)Cl [1,1-dichloroethene] | 0.00034 |
| ClCCl [dichloromethane] | 0.0036 |
| CBr [bromomethane] | 0.0017 |
| OCOO [hydroxymethyl hydroperoxide] | 16000 |
| C=CCl [chloroethene] | 0.00039 |
| ClC(Cl)(Cl)Cl [tetrachloromethane] | 0.00034 |
| CCCCO[N+](=O)[O-] [1-butyl nitrate] | 0.0088 |
| CC(=O)c1ccccc1 [1-phenylethanone] | 1.1 |
| FC(F)(Cl)Cl [dichlorodifluoromethane] | 3.1e-05 |
| Cc1ccccc1C [1,2-dimethylbenzene] | 0.002 |
| CC(=O)OO [ethanoic peroxyacid] | 7.3 |
| CCCC(C)O[N+](=O)[O-] (centres undefined) [2-pentyl nitrate] | 0.0037 |
| ClC(Cl)Br [bromodichloromethane] | 0.004 |
